Test results as given in patent US20090018111A1, “Novel Antimicrobial Medicament” (priority 2004, published 2009).
Read-outs that look alike come from different tables or passages of the source.

Legend:
M. luteus ATCC9341 = assay: Sensitivity test (agar dilution); type: cell-based, Micrococcus luteus; settings: Micrococcus luteus
Description: The antibacterial activities were tested against various 18 bacteria (27 standard strains) which are representative bacteria caused clinically infectious disease (Staphylococcus aureus 3 strains, Staphylococcus epidermidis 1 strain, Micrococcus luteus 1 strain, Streptococcus pyogenes 1 strain, Enterococcus faecalis 1 strain, Enterococcus faecium 1 strain, Bacillus subtilis 1 strain, Escherichia coli 3 strains, Klebsiella pneumoniae 1 strain, Proteus mirabilis 1 strain, Proteus vulgaris 2 strains, Pseudomonas aeruginosa 3 strains, Serratia marcescens 2 strains, Enterobacter aerogenes 1 strain, Stenotrophomonas maltophilia 1 strain, Enterobacter cloacae 1 strain, Citrobacter freundii 1 strain, Moraxella catarrhalis 2 strains).
(§1) According to the standard method of Japan Chemotherapeutic Society (Chemotherapy, vol. […], p 76-79 (1981)) the test was carried out using the agar dilution method. After dissolving test samples in distilled water, agar medium containing the test samples was prepared in such a manner that the final concentration became twice serial dilution by pouring serially diluted combination drug solution or a single drug solution into agar medium. As agar medium was used Mueller Hinton Agar medium (MHA). Then, each strain was cultivated over night at 37° C. in an incubator and suspended in buffered saline solution with gelatin (BSG) in the concentration of about 10^6 CFU/ml. The suspension (about 5 μl) containing test strains was inoculated to the medium containing the test samples by Micro Planter.
When the sample is subjected to sensitivity test, this mixed solution was diluted by twice serial dilution method.
(§2) Furthermore, when the drug is solely used, each test sample was used as it is, and diluted by twice serial dilution method from the maximum concentration to the minimum concentration.
FIC index based on MIC value was calculated. […] Namely, when FIC index calculated by the following formula is equal or less than 1, the enhanced effect of the combination drug in said ratio is considered as positive. When FIC index is over 1, the enhanced effect of the combination drug in said ratio is considered as negative.
Formula of FIC index: FIC index=(MIC of Drug A in combination/MIC of Drug A alone)+(MIC of Drug B in combination/MIC of Drug B alone) N.C. in tables means being not calculated.

B. cepacia 14430 = assay: Sensitivity test (agar dilution), clinical isolate; type: cell-based, Burkholderia cepacia
Description: (§3) In addition, the antibacterial activities were tested against strains which are comparatively less sensitive to β-lactam compounds, namely clinically isolated 13 strains of Acinetobacter calcoaceticus and Acinetobacter lwoffi, clinically isolated 11 strains of Serratia marcescens, clinically isolated 12 strains of Burkholderia cepacia, and clinically isolated 15 strains of Pseudomonas aeruginosa.
as §1
(§4) Each drug was weighed, and dissolved in distilled water to give a test sample. When the drugs are used in combination, two kinds of solution containing each drug were mixed so as to be various ratio of concentration to give a mixed solution. When the sample is subjected to sensitivity test, this mixed solution was diluted by twice serial dilution method.
as §2

B. cepacia 7438 = assay: Sensitivity test (agar dilution), clinical isolate; type: cell-based, Burkholderia cepacia
Description: as §3, §1, §4, §2

B. cepacia 14607 = assay: Sensitivity test (agar dilution), clinical isolate; type: cell-based, Burkholderia cepacia
Description: as §3, §1, §4, §2

B. cepacia 14428 = assay: Sensitivity test (agar dilution), clinical isolate; type: cell-based, Burkholderia cepacia
Description: as §3, §1, §4, §2

B. cepacia 7247 = assay: Sensitivity test (agar dilution), clinical isolate; type: cell-based, Burkholderia cepacia
Description: as §3, §1, §4, §2

B. cepacia 1892324 = assay: Sensitivity test (agar dilution), clinical isolate; type: cell-based, Burkholderia cepacia
Description: as §3, §1, §4, §2

B. cepacia 14300 = assay: Sensitivity test (agar dilution), clinical isolate; type: cell-based, Burkholderia cepacia
Description: as §3, §1, §4, §2

B. cepacia 1993527 = assay: Sensitivity test (agar dilution), clinical isolate; type: cell-based, Burkholderia cepacia
Description: as §3, §1, §4, §2

B. cepacia 14429 = assay: Sensitivity test (agar dilution), clinical isolate; type: cell-based, Burkholderia cepacia
Description: as §3, §1, §4, §2

B. cepacia 3138 = assay: Sensitivity test (agar dilution), clinical isolate; type: cell-based, Burkholderia cepacia
Description: as §3, §1, §4, §2

B. cepacia 257-1 = assay: Sensitivity test (agar dilution), clinical isolate; type: cell-based, Burkholderia cepacia
Description: as §3, §1, §4, §2

## C[C@@H](O)[C@H]1C(=O)N2C(C(=O)O)=C(S[C@@H]3CN[C@H](C(=O)N(C)C)C3)[C@H](C)[C@H]12 [MEPM, meropenem]
M. luteus ATCC9341; ATCC9341
  MIC: 0.125 µg/mL
M. luteus ATCC9341; ATCC9341, Concomitant (MEPM:SM = 1:1), read-out: MIC
  MIC: ≤ 0.016 µg/mL
M. luteus ATCC9341; ATCC9341, Concomitant (MEPM:SM = 1:2), read-out: MIC
  MIC: ≤ 0.016 µg/mL
M. luteus ATCC9341; ATCC9341, Concomitant (MEPM:SM = 1:4), read-out: MIC
  MIC: ≤ 0.016 µg/mL
M. luteus ATCC9341; ATCC9341, Concomitant drug (MEPM:SM = 2:1), read-out: MIC
  MIC: ≤ 0.016 µg/mL
B. cepacia 14430; Burkholderia cepacia, 14430, Concomitant (ME:SM = 1:1)
  MIC: 1 µg/mL
B. cepacia 14430; Burkholderia cepacia, 14430, Concomitant (ME:SM = 1:2)
  MIC: 1 µg/mL
B. cepacia 14430; Burkholderia cepacia, 14430, Concomitant (ME:SM = 1:4)
  MIC: 2 µg/mL
B. cepacia 14430; Burkholderia cepacia, 14430, Concomitant (ME:SM = 2:1)
  MIC: 2 µg/mL
B. cepacia 14430; Burkholderia cepacia, 14430, alone
  MIC: 2 µg/mL
B. cepacia 7438; Burkholderia cepacia, 7438, Concomitant (ME:SM = 1:1)
  MIC: 2 µg/mL
B. cepacia 7438; Burkholderia cepacia, 7438, Concomitant (ME:SM = 1:2)
  MIC: 1 µg/mL
B. cepacia 7438; Burkholderia cepacia, 7438, Concomitant (ME:SM = 1:4)
  MIC: 2 µg/mL
B. cepacia 7438; Burkholderia cepacia, 7438, Concomitant (ME:SM = 2:1)
  MIC: 2 µg/mL
B. cepacia 7438; Burkholderia cepacia, 7438, alone
  MIC: 2 µg/mL
B. cepacia 14607; Burkholderia cepacia, 14607, Concomitant (ME:SM = 1:1)
  MIC: 1 µg/mL
B. cepacia 14607; Burkholderia cepacia, 14607, Concomitant (ME:SM = 1:2)
  MIC: 0.5 µg/mL
B. cepacia 14607; Burkholderia cepacia, 14607, Concomitant (ME:SM = 1:4)
  MIC: 0.5 µg/mL
B. cepacia 14607; Burkholderia cepacia, 14607, Concomitant (ME:SM = 2:1)
  MIC: 1 µg/mL
B. cepacia 14607; Burkholderia cepacia, 14607, alone
  MIC: 1 µg/mL
B. cepacia 14428; Burkholderia cepacia, 14428, Concomitant (ME:SM = 1:1)
  MIC: 1 µg/mL
B. cepacia 14428; Burkholderia cepacia, 14428, Concomitant (ME:SM = 1:2)
  MIC: 1 µg/mL
B. cepacia 14428; Burkholderia cepacia, 14428, Concomitant (ME:SM = 1:4)
  MIC: 0.5 µg/mL
B. cepacia 14428; Burkholderia cepacia, 14428, Concomitant (ME:SM = 2:1)
  MIC: 1 µg/mL
B. cepacia 14428; Burkholderia cepacia, 14428, alone
  MIC: 2 µg/mL
B. cepacia 7247; Burkholderia cepacia, 7247, Concomitant (ME:SM = 1:1)
  MIC: 2 µg/mL
B. cepacia 7247; Burkholderia cepacia, 7247, Concomitant (ME:SM = 1:2)
  MIC: 2 µg/mL
B. cepacia 7247; Burkholderia cepacia, 7247, Concomitant (ME:SM = 1:4)
  MIC: 2 µg/mL
B. cepacia 7247; Burkholderia cepacia, 7247, Concomitant (ME:SM = 2:1)
  MIC: 2 µg/mL
B. cepacia 7247; Burkholderia cepacia, 7247, alone
  MIC: 2 µg/mL
B. cepacia 1892324; Burkholderia cepacia, 1892324, Concomitant (ME:SM = 1:1)
  MIC: 1 µg/mL
B. cepacia 1892324; Burkholderia cepacia, 1892324, Concomitant (ME:SM = 1:2)
  MIC: 1 µg/mL
B. cepacia 1892324; Burkholderia cepacia, 1892324, Concomitant (ME:SM = 1:4)
  MIC: 0.5 µg/mL
B. cepacia 1892324; Burkholderia cepacia, 1892324, Concomitant (ME:SM = 2:1)
  MIC: 2 µg/mL
B. cepacia 1892324; Burkholderia cepacia, 1892324, alone
  MIC: 2 µg/mL
B. cepacia 14300; Burkholderia cepacia, 14300, Concomitant (ME:SM = 1:1)
  MIC: 0.5 µg/mL
B. cepacia 14300; Burkholderia cepacia, 14300, Concomitant (ME:SM = 1:2)
  MIC: 0.5 µg/mL
B. cepacia 14300; Burkholderia cepacia, 14300, Concomitant (ME:SM = 1:4)
  MIC: 0.25 µg/mL
B. cepacia 14300; Burkholderia cepacia, 14300, Concomitant (ME:SM = 2:1)
  MIC: 0.5 µg/mL
B. cepacia 14300; Burkholderia cepacia, 14300, alone
  MIC: 0.5 µg/mL
B. cepacia 1993527; Burkholderia cepacia, 1993527, Concomitant (ME:SM = 1:1)
  MIC: 1 µg/mL
B. cepacia 1993527; Burkholderia cepacia, 1993527, Concomitant (ME:SM = 1:2)
  MIC: 1 µg/mL
B. cepacia 1993527; Burkholderia cepacia, 1993527, Concomitant (ME:SM = 1:4)
  MIC: 2 µg/mL
B. cepacia 1993527; Burkholderia cepacia, 1993527, Concomitant (ME:SM = 2:1)
  MIC: 2 µg/mL
B. cepacia 1993527; Burkholderia cepacia, 1993527, alone
  MIC: 2 µg/mL
B. cepacia 14429; Burkholderia cepacia, 14429, Concomitant (ME:SM = 1:1)
  MIC: 1 µg/mL
B. cepacia 14429; Burkholderia cepacia, 14429, Concomitant (ME:SM = 1:2)
  MIC: 0.5 µg/mL
B. cepacia 14429; Burkholderia cepacia, 14429, Concomitant (ME:SM = 1:4)
  MIC: 0.5 µg/mL
B. cepacia 14429; Burkholderia cepacia, 14429, Concomitant (ME:SM = 2:1)
  MIC: 1 µg/mL
B. cepacia 14429; Burkholderia cepacia, 14429, alone
  MIC: 1 µg/mL
B. cepacia 3138; Burkholderia cepacia, 3138, Concomitant (ME:SM = 1:1)
  MIC: 1 µg/mL
B. cepacia 3138; Burkholderia cepacia, 3138, Concomitant (ME:SM = 1:2)
  MIC: 1 µg/mL
B. cepacia 3138; Burkholderia cepacia, 3138, Concomitant (ME:SM = 1:4)
  MIC: 2 µg/mL
B. cepacia 3138; Burkholderia cepacia, 3138, Concomitant (ME:SM = 2:1)
  MIC: 2 µg/mL
B. cepacia 3138; Burkholderia cepacia, 3138, alone
  MIC: 2 µg/mL
B. cepacia 257-1; Burkholderia cepacia, 2571, Concomitant (ME:SM = 1:1)
  MIC: 0.5 µg/mL
B. cepacia 257-1; Burkholderia cepacia, 2571, Concomitant (ME:SM = 1:2)
  MIC: 0.25 µg/mL
B. cepacia 257-1; Burkholderia cepacia, 2571, Concomitant (ME:SM = 1:4)
  MIC: 0.25 µg/mL
B. cepacia 257-1; Burkholderia cepacia, 2571, Concomitant (ME:SM = 2:1)
  MIC: 0.5 µg/mL
B. cepacia 257-1; Burkholderia cepacia, 2571, alone
  MIC: 0.5 µg/mL

## C[C@H]1[C@H](NC(=O)/C(=N\OC(C)(C)C(=O)O)c2csc(N)n2)C(=O)N1S(=O)(=O)O [AZT, aztreonam]
M. luteus ATCC9341; ATCC9341, Concomitant (AZT:SM = 1:1), M. luteus ATCC9341, read-out: MIC concomitant
  MIC: ≤ 0.002 µg/mL
M. luteus ATCC9341; ATCC9341, drug alone, M. luteus ATCC9341, read-out: MIC alone
  MIC: 16 µg/mL
